The target in one assay is cGAS (Homo sapiens, UniProt Q8N884). Description: cell-based.
In assay [1] the test system is TREX1 KO THP-1 ISG Luc cells. Description: cells. The conditions noted are these: Homo sapiens, 48 h, read-out: ISRE-Luc IC50. Type of assay: cell-based.
A further assay deals with THP-1 ISG Luc cells. Description: cells. Format: cell-based. The conditions noted are these: Homo sapiens, THP-1, 48 h, read-out: CTG IC50.
Assay [2] concerns TREX1 KO THP-1 ISG Luc cells. Description: cells. Format: cell-based. The conditions noted are these: Homo sapiens, cell viability, 48 h, read-out: CTG IC50.

Like-named read-outs stand apart in the source and are kept apart here.

cGAS, sequence (Q8N884 whole entry): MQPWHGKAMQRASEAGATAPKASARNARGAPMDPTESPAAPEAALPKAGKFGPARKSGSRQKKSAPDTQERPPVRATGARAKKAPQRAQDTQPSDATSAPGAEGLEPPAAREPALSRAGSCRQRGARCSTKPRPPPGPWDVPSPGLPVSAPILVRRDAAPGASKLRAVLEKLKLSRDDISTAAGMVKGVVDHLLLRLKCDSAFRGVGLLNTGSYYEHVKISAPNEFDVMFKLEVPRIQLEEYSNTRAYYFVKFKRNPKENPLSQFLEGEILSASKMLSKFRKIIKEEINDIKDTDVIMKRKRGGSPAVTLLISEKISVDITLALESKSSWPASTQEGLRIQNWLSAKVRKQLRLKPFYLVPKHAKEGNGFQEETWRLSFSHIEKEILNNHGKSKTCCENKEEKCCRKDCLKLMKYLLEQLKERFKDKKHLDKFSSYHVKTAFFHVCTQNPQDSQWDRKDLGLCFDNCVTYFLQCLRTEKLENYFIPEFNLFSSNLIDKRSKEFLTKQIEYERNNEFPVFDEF

`Nc1cc(C2CCN(C(=O)c3cc4ccccc4[nH]3)CC2)no1` [Compound 2, (4-(5-aminoisoxazol-3-yl)piperidin-1-yl)(1H-indol-2-yl)methanone]: the IC50 was 890 nM on cGAS, 950 nM in assay [1], greater than 10000 nM with THP-1 ISG Luc cells and greater than 10000 nM in assay [2].

These data come from patent US20240342185A1, “SMALL MOLECULES INHIBITORS OF CYCLIC GMP-AMP SYNTHASE (cGAS)” (priority 2021, published 2024).
